According to ChEMBL document CHEMBL1125987, “C8-substituted derivatives of 2-(dipropylamino)tetralin: Palladium-catalyzed synthesis and interactions with 5-HT1A-receptors” (Bioorg Med Chem Lett, 1991):

Key:
[1] = biological target: T1, 5-hydroxytryptamine receptor 1A (Rattus norvegicus, UniProt P19327); assay: (§1) Inhibition of [3H]- 8-OH-DPAT binding to 5-HT1A-receptor from rat cerebral cortex membranes; type: cell membranes, Membrane
T1 sequence (P19327 whole entry): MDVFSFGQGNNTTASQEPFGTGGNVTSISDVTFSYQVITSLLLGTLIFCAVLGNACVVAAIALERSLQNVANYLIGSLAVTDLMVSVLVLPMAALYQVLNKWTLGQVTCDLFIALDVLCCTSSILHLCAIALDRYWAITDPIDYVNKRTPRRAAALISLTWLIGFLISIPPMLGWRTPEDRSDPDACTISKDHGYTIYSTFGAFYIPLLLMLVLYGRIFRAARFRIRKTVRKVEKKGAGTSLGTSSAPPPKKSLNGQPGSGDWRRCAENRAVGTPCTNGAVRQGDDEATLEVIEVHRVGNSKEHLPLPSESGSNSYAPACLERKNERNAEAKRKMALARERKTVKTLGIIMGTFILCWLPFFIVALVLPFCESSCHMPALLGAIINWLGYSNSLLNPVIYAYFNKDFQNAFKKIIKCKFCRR

[2] = biological target: T2, 5-hydroxytryptamine receptor 1A (Rattus norvegicus) (UniProt P19327); assay: as §1; type: cell membranes; details: Membrane
T2 sequence (whole entry): T1 sequence (P19327 whole entry)

[3] = biological target: T2, 5-hydroxytryptamine receptor 1A (Rattus norvegicus); assay: Compound evaluated for inhibiting the binding of [3H]- 8-OH-DPAT to 5-HT1A-receptor from cerebral cortex membranes of rat measured as Hill coefficient; type: tissue-based; details: Membrane
Rattus norvegicus [4] = assay: (§2) In vivo inhibition of L-uM/Kg; type: functional
Rattus norvegicus [5] = assay: as §2; type: functional; remark: listed apart in the source
Rattus norvegicus [6] = assay: Agonism to 5-HT1A receptor was measured by the accumulation of DOPA in limbic region of non pretreated rats subcutaneously at 0.32 um/Kg; type: functional, Limbic system
Rattus norvegicus [7] = assay: Agonism to 5-HT1A receptor was measured by the accumulation of DOPA in striatum of non pretreated rats subcutaneously at 0.32 um/Kg; type: functional

Structure (SMILES): CCCN(CCC)C1CCc2cccc(C(=O)O)c2C1 (racemic)
- Ki [1]: > 300 nM

Structure (SMILES): CCCN(CCC)[C@@H]1CCc2ccccc2C1
- Hill coefficient [2]: 0.85
- Ki [1]: 17 nM

Structure (SMILES): CCCN(CCC)[C@H]1CCc2cccc(-c3ccccc3)c2C1
- Hill coefficient [2]: 1.04
- Ki [1]: 24 nM

Structure (SMILES): CCCN(CCC)[C@@H]1CCc2cccc(C(=O)OC)c2C1
- Hill coefficient [3]: 0.9
- Ki [1]: 4.3 nM

Structure (SMILES): CCCN(CCC)[C@H]1CCc2cccc(O)c2C1
- Activity (Rattus norvegicus [4]): 112 ng (g of tissue)-1
- Activity (Rattus norvegicus [5]): 55.8 ng (g of tissue)-1
- Activity (Rattus norvegicus [6]): 445 ng (g of tissue)-1
- Activity (Rattus norvegicus [7]): 1136 ng (g of tissue)-1
- Hill coefficient [2]: 0.86

Structure (SMILES): CCCN(CCC)[C@H]1CCc2cccc(C(C)=O)c2C1
- Activity (Rattus norvegicus [4]): 89 ng (g of tissue)-1
- Activity (Rattus norvegicus [5]): 58.5 ng (g of tissue)-1
- Activity (Rattus norvegicus [6]): 365 ng (g of tissue)-1
- Activity (Rattus norvegicus [7]): 1098 ng (g of tissue)-1
- Hill coefficient [2]: 0.71
- Ki [1]: 0.7 nM

Structure (SMILES): CCCN(CCC)[C@@H]1CCc2cccc(-c3ccccc3)c2C1
- Hill coefficient [2]: 1
- Ki [1]: 7.7 nM

Structure (SMILES): CCCN(CCC)[C@H]1CCc2cccc(C(=O)OC)c2C1
- Hill coefficient [3]: 1.01
- Ki [1]: 1.7 nM

Structure (SMILES): CCCN(CCC)[C@@H]1CCc2cccc(OS(=O)(=O)C(F)(F)F)c2C1
- Hill coefficient [2]: 0.79
- Ki [1]: 3.8 nM

Structure (SMILES): CCCN(CCC)[C@@H]1CCc2cccc(C(C)=O)c2C1
- Activity (Rattus norvegicus [4]): 111 ng (g of tissue)-1
- Hill coefficient [3]: 0.96
- Activity (Rattus norvegicus [5]): 62.1 ng (g of tissue)-1
- Activity (Rattus norvegicus [6]): 399 ng (g of tissue)-1
- Activity (Rattus norvegicus [7]): 1101 ng (g of tissue)-1
- Ki [1]: 1.8 nM

Structure (SMILES): CCCN(CCC)[C@H]1CCc2ccccc2C1
- Hill coefficient [2]: 0.83
- Ki [1]: 56 nM

Structure (SMILES): CCCN(CCC)[C@H]1CCc2cccc(C)c2C1
- Hill coefficient [2]: 1.04
- Ki [1]: 62 nM

Structure (SMILES): CCCN(CCC)[C@H]1CCc2cccc(OS(=O)(=O)C(F)(F)F)c2C1
- Hill coefficient [2]: 0.83
- Ki [1]: 9.5 nM

Structure (SMILES): CCCN(CCC)[C@@H]1CCc2cccc(C)c2C1
- Hill coefficient [2]: 1.13
- Ki [1]: 34 nM

Structure (SMILES): CCCN(CCC)[C@H]1CCc2cccc(OC)c2C1
- Hill coefficient [2]: 0.96
- Ki [1]: 2.8 nM

Structure (SMILES): CCCN(CCC)[C@@H]1CCc2cccc(O)c2C1
- Activity (Rattus norvegicus [4]): 102 ng (g of tissue)-1
- Activity (Rattus norvegicus [5]): 51.2 ng (g of tissue)-1
- Activity (Rattus norvegicus [6]): 414 ng (g of tissue)-1
- Activity (Rattus norvegicus [7]): 1280 ng (g of tissue)-1
- Hill coefficient [2]: 0.97

Structure (SMILES): CCCN(CCC)[C@@H]1CCc2cccc(OC)c2C1
- Hill coefficient [2]: 1.11
- Ki [1]: 1.5 nM
